Source: ChEMBL document CHEMBL1201862, “PubChem BioAssay data set” (2004)
The source made the active and inactive calls.

Columns and labels:
[1] = fluconazole-exposed Candida albicans growth modulators – fluorescence, retest, confirmation (AID 2467); assay type: functional, cell-based
[2] = target: ATP-dependent molecular chaperone HSP82 (Candida albicans (strain WO-1) (Yeast), UniProt C4YTQ8); assay: steroid-induced GRE reporter decrease in yeast – S. cerevisiae, luminescence, Hsp90 inhibitor project, dose response (AID 2400); assay type: functional, cell-based;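 further: beta-galactosidase luminescence from glucocorticoid response element reporter as proxy for Hsp90 function; inhibitor potency where signal loss means Hsp90 inhibition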
[3] = NIH-3T3 fibroblast cytotoxicity, dose response, cytotoxicity control, cell-based, fluorescence, Alamar Blue, secondary assay (AID 2327); assay type: functional;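 further: NIH-3T3 mouse fibroblasts cultured with fluconazole at 8 µg/mL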
[4] = target: T1, Serine/threonine-protein phosphatase (Candida dubliniensis (strain CD36 / CBS 7987 / NCPF 3949 / NRRLY-17841) (Yeast), UniProt B9W6M3); assay: blockers of CaCl2-induced CDRE-lacZ signaling – S. cerevisiae, luminescence, secondary, dose response (AID 2388); assay type: functional, cell-based;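 further: yeast reporter cells carrying a calcineurin-responsive lacZ construct stimulated with calcium chloride; luminescent beta-galactosidase reporter signal in whole cells rather than isolated phosphatase activity; potency for inhibition where a drop in reporter signal means calcineurin blockade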
T1 sequence (B9W6M3 whole entry): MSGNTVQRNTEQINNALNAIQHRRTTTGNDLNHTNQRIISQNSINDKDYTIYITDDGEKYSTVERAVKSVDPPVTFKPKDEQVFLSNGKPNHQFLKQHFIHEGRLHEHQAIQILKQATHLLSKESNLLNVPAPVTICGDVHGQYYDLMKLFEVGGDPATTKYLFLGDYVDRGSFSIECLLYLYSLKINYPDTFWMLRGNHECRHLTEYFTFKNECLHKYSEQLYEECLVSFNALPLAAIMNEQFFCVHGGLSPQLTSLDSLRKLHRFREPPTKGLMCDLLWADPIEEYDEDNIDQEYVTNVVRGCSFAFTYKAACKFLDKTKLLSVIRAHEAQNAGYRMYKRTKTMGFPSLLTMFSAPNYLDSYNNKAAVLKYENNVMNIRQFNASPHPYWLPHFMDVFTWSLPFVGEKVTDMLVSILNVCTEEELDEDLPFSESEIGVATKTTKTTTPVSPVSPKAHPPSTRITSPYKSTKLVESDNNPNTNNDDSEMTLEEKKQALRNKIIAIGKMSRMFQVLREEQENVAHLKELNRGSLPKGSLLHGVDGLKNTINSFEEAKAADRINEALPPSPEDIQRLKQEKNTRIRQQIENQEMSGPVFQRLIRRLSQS

[5] = target: 72 kDa type IV collagenase (Homo sapiens, UniProt P08253); assay: Dose Response validation of uHTS RPN11 inhibitor hits using a MMP-2 Fluorescence assay.; assay type: functional
Prothrombin = Prothrombin (Bos taurus, UniProt P00735); assay: thrombin protease inhibitors – biochemical, fluorescence polarization, uHTS hits, dose response (AID 602369); assay type: functional
[6] = target: 26S proteasome non-ATPase regulatory subunit 14 (Homo sapiens, UniProt O00487); assay: inhibition of proteasome subunit RPN11 – biochemical, fluorescence polarization, uHTS hits, confirmation (AID 602368); assay type: functional
[7] = target: T2, DNA repair and recombination protein RAD54-like (Homo sapiens, UniProt Q92698); assay: RAD54 Holliday junction migration blockers – biochemical, fluorescence, cherry-picked samples, dose series, confirmation (AID 651657); assay type: functional
T2 sequence (Q92698 whole entry): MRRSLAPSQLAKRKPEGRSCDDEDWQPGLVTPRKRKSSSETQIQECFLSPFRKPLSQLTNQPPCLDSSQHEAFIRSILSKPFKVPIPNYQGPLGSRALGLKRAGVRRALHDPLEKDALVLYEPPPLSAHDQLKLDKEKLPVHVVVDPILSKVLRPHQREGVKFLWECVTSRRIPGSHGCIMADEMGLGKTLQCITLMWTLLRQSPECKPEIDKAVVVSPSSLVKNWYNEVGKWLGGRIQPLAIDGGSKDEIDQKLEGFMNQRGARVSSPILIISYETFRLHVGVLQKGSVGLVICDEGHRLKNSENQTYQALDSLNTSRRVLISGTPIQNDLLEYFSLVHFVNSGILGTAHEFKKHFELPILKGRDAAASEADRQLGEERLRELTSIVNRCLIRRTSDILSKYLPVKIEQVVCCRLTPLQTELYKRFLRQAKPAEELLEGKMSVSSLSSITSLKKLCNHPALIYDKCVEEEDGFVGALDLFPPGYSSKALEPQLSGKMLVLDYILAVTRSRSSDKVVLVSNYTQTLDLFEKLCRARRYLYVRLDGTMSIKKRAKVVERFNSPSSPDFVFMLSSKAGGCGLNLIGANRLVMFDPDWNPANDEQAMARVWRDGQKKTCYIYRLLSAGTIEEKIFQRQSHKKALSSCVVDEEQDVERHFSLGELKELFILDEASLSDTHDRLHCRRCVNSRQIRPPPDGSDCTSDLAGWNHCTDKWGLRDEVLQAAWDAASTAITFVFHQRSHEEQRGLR

Cytochrome P450 2D6 = Cytochrome P450 2D6 (Homo sapiens, UniProt P10635);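 further: CYP2D6 member of a cytochrome P450 panel assay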
Cytochrome P450 3A4 = Cytochrome P450 3A4 (Homo sapiens, UniProt P08684);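 further: CYP3A4 tested as one member of a cytochrome P450 panel screen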
[8] = target: T3, DNA repair protein RAD52 homolog (Homo sapiens, UniProt P43351); assay type: functional, biochemical
T3 sequence (P43351 whole entry): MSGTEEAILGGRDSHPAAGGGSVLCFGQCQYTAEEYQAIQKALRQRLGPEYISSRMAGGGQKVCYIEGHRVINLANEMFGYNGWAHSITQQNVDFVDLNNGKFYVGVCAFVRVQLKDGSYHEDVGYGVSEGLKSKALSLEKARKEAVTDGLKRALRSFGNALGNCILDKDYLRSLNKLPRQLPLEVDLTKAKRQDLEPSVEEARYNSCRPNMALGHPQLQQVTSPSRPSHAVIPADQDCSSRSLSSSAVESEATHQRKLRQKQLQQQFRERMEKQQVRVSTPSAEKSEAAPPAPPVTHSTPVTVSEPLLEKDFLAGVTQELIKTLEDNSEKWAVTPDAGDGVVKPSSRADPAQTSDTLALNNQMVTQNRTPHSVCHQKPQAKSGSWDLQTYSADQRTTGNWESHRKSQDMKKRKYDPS

Streptococcus = assay: GAS UMAA2166 growth inhibition – luminescence, BacTiterGlo, counter-screen for streptokinase expression inhibitor project, dose response (AID 1915); assay type: functional, organism-based;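 further: potency for reduction of bacterial viability or growth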
Streptokinase A = target: T4, Streptokinase A (Streptococcus pyogenes serotype M1, UniProt P10520); assay: viability-normalized secreted streptokinase activity reduction – plasminogen activation absorbance, OD405, dose response (AID 1914); assay type: functional, Streptococcus pyogenes M1 GAS;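 further: secreted streptokinase activity via plasminogen activation per viability signal from cell pellet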
T4 sequence (P10520 whole entry): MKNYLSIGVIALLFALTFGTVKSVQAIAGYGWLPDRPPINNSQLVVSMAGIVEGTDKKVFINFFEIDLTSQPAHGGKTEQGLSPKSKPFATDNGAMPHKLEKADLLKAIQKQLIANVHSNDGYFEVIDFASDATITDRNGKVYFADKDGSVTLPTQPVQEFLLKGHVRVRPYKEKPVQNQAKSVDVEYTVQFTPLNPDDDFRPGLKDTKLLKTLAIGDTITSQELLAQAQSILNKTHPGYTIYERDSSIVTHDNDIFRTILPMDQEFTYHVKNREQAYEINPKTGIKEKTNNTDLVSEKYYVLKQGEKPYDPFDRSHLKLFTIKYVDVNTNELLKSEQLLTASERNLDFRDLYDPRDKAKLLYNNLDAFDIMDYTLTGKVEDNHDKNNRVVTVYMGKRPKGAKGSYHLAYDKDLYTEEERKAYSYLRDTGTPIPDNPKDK

[9] = tested on: Streptococcus sp. 'group A'; assay: Streptococcus pyogenes SK(-)GAS viability under kanamycin – luminescence, BacTiterGlo, confirmation, counter-screen for streptokinase expression inhibitor project, dose response (AID 1900); assay type: functional, organism-based
[10] = blockers of HIV-1 envelope-mediated cell-cell fusion – cherry-pick, dose response (AID 652057); assay type: functional, cell-based
[11] = off-target signal loss in HeLa-CEM21 co-culture – HeLa F-luc CTL cells, cherry-picked, counter-screen for HIV-1 Env fusion inhibitor project, dose response (AID 652040); assay type: functional, cell-based;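 further: potency for signal decrease marking cytotoxic or nonspecific inhibition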
[12] = HIV-1 AD8 envelope cell-cell fusion blockers – cherry-pick, dose response (AID 652062); assay type: functional, cell-based;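 further: luciferase signal from cell-cell fusion driven by HIV-1 clade B AD8 Env; potency is for inhibitors of fusion seen as a drop in luminescence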
[13] = blockers of HIV-1 ZM109 envelope-driven cell-cell fusion – HeLa effector, CEM target cells, luciferase, cherry-pick, dose response (AID 652058); assay type: functional, cell-based;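 further: luciferase signal from HIV-1 Env mediated cell-cell fusion of effector and target cells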
Vero = assay: cells; assay type: functional; details: Chlorocebus sabaeus
P388/ADR = assay: cells; assay type: functional; details: Mus musculus
SN12K1 = assay: cells; assay type: functional
cells [14] = assay type: functional, cell-based
Nonstructural protein 1 = Nonstructural protein 1 (Influenza A virus, UniProt Q194T2); assay type: functional, Influenza A virus (A/California/07/2009(H1N1))
[15] = target: T5, Rac GTPase-activating protein 1 (Homo sapiens, UniProt Q9H0H5); assay: blockers of MgcRacGAP-driven Rac1 GTP hydrolysis – biochemical, ADP Hunter fluorescence, primary and confirmatory, confirmation (AID 624330); assay type: functional
T5 sequence (Q9H0H5 whole entry): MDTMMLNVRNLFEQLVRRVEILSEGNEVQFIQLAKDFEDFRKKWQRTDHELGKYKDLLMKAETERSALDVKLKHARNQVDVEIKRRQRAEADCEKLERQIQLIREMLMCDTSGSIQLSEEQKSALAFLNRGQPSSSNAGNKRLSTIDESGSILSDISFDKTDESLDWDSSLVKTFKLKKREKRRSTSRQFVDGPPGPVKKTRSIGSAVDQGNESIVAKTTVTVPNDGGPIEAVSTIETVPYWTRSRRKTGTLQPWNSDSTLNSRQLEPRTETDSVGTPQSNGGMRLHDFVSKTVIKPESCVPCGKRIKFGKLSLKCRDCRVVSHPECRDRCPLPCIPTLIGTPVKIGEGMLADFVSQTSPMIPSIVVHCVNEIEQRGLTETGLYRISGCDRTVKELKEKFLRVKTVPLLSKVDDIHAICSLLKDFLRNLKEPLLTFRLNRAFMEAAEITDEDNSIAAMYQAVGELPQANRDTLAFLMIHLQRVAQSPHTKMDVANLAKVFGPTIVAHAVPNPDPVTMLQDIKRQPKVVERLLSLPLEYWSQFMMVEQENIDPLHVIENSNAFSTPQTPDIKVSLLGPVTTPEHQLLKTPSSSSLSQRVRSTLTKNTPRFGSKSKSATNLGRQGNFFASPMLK

HEK293 = assay: EBV LMP1 TES2 canonical NF-kB signalling blockers – cell-based, HEK293, luciferase, cherry-pick, dose response (AID 588343); assay type: functional; details: Homo sapiens
cells [16] = assay type: functional, cell-based; remark: listed apart in the source
Large T antigen = Large T antigen (Simian virus 40, UniProt P03070); assay type: functional, Betapolyomavirus macacae;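 further: Confirmatory-stage PubChem screen for compounds that inhibit SV40 T antigen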
Large T antigen, sequence (P03070 whole entry): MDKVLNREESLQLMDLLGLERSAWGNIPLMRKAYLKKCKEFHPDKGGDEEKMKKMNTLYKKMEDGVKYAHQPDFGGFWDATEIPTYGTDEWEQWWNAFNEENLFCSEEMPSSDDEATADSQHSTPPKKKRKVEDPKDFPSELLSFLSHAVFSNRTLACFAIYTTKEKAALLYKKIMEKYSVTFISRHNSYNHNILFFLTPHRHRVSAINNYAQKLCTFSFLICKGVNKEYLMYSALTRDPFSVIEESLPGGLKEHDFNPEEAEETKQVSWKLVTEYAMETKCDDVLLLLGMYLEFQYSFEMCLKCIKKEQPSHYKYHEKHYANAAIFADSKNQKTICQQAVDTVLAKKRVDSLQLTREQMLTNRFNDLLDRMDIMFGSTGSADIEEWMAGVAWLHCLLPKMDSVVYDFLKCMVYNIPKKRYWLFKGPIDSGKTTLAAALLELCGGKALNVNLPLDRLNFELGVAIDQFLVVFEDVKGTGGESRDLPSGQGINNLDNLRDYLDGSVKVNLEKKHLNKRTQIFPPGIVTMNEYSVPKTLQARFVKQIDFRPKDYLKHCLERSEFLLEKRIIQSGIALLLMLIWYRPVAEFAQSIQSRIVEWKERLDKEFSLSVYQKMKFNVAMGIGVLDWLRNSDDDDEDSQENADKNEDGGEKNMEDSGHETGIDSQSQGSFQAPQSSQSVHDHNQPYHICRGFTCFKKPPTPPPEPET

26S proteasome non-ATPase regulatory subunit 14, sequence (O00487 whole entry): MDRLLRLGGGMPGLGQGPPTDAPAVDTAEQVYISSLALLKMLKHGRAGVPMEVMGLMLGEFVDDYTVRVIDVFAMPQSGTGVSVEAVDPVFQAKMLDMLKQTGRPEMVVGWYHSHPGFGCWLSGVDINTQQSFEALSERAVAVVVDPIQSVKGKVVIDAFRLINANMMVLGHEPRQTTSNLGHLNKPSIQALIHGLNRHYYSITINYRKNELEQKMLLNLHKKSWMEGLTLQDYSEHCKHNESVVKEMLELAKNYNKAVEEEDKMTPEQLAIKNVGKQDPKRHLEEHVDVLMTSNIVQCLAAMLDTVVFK
72 kDa type IV collagenase, sequence (P08253 whole entry): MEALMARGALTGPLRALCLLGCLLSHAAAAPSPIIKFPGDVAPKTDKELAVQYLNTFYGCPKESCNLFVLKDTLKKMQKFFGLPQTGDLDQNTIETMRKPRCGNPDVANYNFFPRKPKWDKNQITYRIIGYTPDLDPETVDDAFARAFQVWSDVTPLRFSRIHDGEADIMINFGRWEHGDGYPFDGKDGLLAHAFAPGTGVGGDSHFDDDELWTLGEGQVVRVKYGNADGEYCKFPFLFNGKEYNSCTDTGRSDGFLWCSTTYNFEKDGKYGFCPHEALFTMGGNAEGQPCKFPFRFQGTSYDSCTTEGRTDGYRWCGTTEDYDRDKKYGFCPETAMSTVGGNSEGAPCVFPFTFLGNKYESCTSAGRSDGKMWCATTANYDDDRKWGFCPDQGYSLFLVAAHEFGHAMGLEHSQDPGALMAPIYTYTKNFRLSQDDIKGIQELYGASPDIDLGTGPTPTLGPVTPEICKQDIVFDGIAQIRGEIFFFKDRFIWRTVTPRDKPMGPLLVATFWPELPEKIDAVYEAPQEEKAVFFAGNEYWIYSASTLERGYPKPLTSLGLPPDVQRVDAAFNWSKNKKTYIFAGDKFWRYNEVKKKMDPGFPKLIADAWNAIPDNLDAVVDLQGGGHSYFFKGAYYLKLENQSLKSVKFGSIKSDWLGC
ATP-dependent molecular chaperone HSP82, sequence (C4YTQ8 whole entry): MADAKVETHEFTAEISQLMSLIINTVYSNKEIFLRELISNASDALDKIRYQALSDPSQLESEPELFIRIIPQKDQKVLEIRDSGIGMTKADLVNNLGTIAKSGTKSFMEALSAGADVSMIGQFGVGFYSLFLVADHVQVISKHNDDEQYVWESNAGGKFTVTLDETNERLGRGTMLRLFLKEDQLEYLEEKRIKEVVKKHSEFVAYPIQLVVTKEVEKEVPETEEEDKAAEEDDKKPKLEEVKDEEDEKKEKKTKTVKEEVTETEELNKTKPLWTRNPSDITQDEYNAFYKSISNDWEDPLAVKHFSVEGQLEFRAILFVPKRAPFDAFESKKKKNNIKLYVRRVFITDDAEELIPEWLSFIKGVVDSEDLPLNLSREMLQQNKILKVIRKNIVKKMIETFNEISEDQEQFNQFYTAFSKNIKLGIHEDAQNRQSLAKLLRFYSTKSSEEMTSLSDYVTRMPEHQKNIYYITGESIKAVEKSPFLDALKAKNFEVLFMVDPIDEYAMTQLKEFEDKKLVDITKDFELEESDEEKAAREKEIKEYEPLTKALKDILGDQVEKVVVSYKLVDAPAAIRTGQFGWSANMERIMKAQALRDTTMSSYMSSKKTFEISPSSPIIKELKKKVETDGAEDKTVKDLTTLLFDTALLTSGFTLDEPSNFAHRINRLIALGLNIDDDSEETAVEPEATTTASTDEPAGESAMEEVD
Nonstructural protein 1, sequence (Q194T2 whole entry): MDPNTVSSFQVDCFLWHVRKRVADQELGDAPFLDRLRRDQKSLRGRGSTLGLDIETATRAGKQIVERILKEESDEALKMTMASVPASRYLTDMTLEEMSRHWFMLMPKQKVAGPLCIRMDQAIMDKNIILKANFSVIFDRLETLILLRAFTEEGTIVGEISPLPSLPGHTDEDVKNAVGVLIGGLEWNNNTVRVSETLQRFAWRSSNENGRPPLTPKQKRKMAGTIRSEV
Cytochrome P450 3A4, sequence (P08684 whole entry): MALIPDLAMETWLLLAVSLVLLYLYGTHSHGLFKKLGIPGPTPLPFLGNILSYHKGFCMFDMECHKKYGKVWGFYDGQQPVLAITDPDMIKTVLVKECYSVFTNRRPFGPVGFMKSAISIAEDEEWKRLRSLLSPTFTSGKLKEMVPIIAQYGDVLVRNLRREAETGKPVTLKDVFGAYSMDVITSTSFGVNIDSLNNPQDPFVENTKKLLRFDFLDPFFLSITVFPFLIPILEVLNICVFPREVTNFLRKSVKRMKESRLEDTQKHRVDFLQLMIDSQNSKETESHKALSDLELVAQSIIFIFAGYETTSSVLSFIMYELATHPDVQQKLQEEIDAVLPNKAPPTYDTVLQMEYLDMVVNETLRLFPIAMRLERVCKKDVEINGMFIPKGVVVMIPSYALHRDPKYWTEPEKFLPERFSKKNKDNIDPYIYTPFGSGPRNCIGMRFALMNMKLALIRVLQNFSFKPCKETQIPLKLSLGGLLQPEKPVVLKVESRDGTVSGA
Cytochrome P450 2D6, sequence (P10635 whole entry): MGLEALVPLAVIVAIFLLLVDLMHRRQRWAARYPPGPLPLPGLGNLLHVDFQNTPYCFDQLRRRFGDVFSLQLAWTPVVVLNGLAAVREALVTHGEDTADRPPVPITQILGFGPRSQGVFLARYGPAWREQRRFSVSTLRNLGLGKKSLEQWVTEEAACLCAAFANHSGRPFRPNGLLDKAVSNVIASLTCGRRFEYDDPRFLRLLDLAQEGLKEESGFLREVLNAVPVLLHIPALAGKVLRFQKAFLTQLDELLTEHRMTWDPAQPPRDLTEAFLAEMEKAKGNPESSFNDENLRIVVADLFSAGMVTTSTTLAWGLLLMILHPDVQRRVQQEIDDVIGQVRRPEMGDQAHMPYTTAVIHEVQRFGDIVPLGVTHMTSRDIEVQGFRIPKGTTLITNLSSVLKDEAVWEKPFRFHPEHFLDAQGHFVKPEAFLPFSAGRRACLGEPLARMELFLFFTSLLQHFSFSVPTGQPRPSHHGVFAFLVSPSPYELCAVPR

COc1ccc(-n2nc(C(=O)NCC(=O)N3CCN(c4ccc(F)cc4)CC3)c3ccccc3c2=O)c(OC)c1
EC50 [1]: 0.642 µM (active)
EC50 [2]: > 150 µM (inactive)
EC50 [3]: > 150 µM (inactive)
EC50 [4]: > 180 µM (inactive)

CC(C)(C)c1nc2ccccc2c2nnc(SCC(=O)Nc3nc4ccccc4s3)n12
IC50 [5]: > 100 µM (inactive)
IC50 (Prothrombin): > 100 µM (inactive)
IC50 [6]: 3.79 µM (active)

CCN(CC)CCN(C(=O)c1ccc2ncsc2c1)c1nc2cc3c(cc2s1)OCO3
AC50 [7]: 51.9 µM (active)

Cc1ccc2[nH]c(/C(C#N)=C\c3ccc(OC(=O)c4cccs4)cc3)nc2c1
EC50 [1]: 5.29 µM (active)
EC50 [2]: 23.3 µM (active)
EC50 [3]: 17.2 µM (inconclusive)
AC50 (Cytochrome P450 2D6): 3.55 µM (inconclusive)
AC50 (Cytochrome P450 3A4): 14.1 µM (inconclusive)
EC50 [4]: > 180 µM (inactive)

Cn1c2ccccc2c(=O)c2cc(NCCCN3CCOCC3)ccc21
AC50 [8]: 7.92 µM (active)
AC50 [7]: 11.7 µM (active)

O=C(c1cc2ccccc2cc1O)N1CCN(c2ccccc2O)CC1
EC50 [1]: 0.274 µM (active)
EC50 [2]: > 150 µM (inactive)
EC50 [3]: > 150 µM (inactive)
EC50 (Streptococcus): 110 µM (active)
EC50 (Streptokinase A): > 150 µM (not active)
EC50 [4]: > 180 µM (inactive)
EC50 [9]: 24.3 µM (active)

O=C(N(c1ccccn1)c1ccccn1)C12CC3CC(CC(Cl)(C3)C1)C2
AC50 [10]: 5.04 µM (active)
AC50 [11]: 6.95 µM (active)
AC50 [12]: 9.92 µM (active)
AC50 [13]: 4.96 µM (active)

Cn1c(=O)oc2cc(S(=O)(=O)N3CCN(c4ccccc4F)CC3)ccc21
IC50 [5]: > 100 µM (inactive)
IC50 (Prothrombin): 52.9 µM (active)
IC50 [6]: 20.7 µM (active)

CC[C@]1(C(=O)OC)[C@H]2C(=O)N(Cc3ccccc3)C(=O)[C@H]2[C@H]2CN=C(SCc3ccccc3)N21
AC50 [10]: 1.01 µM (active)
AC50 [11]: 1.55 µM (active)
AC50 [12]: 1.68 µM (active)
AC50 [13]: 1.16 µM (active)

O=C(CC1CCCC1)NNC(=O)c1ccccc1O
CC50 (Vero): > 25 µM (active)

CCN(CC)CC[n+]1ccc2c(C)c3[nH]c4ccccc4c3c(C)c2c1
GI50 (P388/ADR): 29.9 µM (inactive)
GI50 (SN12K1): 0.137 µM (active)

COc1ccc(NC(=O)c2cccc3c(-c4cccnc4)coc23)cc1
IC50 [5]: > 100 µM (inactive)
IC50 (Prothrombin): > 100 µM (inactive)
IC50 [6]: 15.2 µM (active)

COc1ccc(NC(=O)Nc2ccc3c(c2)CC(=O)N([C@H](C)CO)C[C@H](C)[C@H](CN(C)S(=O)(=O)c2cccs2)O3)cc1
AC50 [10]: 0.96 µM (active)
AC50 [12]: 5.21 µM (active)
AC50 [13]: 1.55 µM (active)

CCN(CC)S(=O)(=O)c1ccc(N/N=C/c2ccc(O)cc2O)nc1
EC50 [1]: 0.945 µM (active)
EC50 (cells [14]): 4.61 µM (active)
IC50 (Nonstructural protein 1): 12.1 µM (active)
EC50 [2]: > 160 µM (inactive)
EC50 [3]: 38.5 µM (active)
IC50 [15]: 24.3 µM (active)
EC50 [4]: > 180 µM (inactive)
AC50 (HEK293): 5.04 µM (active)
EC50 (cells [16]): > 350 µM (not active)

COc1cc2c(cc1O)CC[n+]1cc3c(OC)c(OC)ccc3cc1-2 [JATRORRHIZINE]
EC50 [1]: 2.91 µM (active)
AC50 [8]: 15.2 µM (active)
EC50 [3]: > 160 µM (inactive)
IC50 (Large T antigen): 10.1 µM (active)
